# Data from ChEMBL document CHEMBL3045844, “Synthetic utility of sydnones: synthesis of pyrazolines derivatized with 1,2,4-triazoles as antihyperglymic, antioxidant agents and their DNA cleavage study” (Med Chem Res, 2012).
# Calls of active or inactive are those of the source. The rule behind the calls is not given here.
# Legend:
# [1] = tested on: Radical scavenging activity; assay: Antioxidant activity assessed as DPPH radical scavenging activity at 100 ug after 20 min; assay type: functional
# [2] = Induction of DNA cleavage at 100 ug after 2 hr by electrophoresis relative to control
# [3] = tested on: Radical scavenging activity; assay: Antioxidant activity assessed as DPPH radical scavenging activity at 10 ug after 20 min; assay type: functional
# [4] = tested on: Radical scavenging activity; assay: Antioxidant activity assessed as DPPH radical scavenging activity at 50 ug after 20 min; assay type: functional
# [5] = target: T1, Pancreatic alpha-amylase (Homo sapiens) (UniProt P04746); assay: Activity of alpha amylase (unknown origin) at 1 mg/ml after 10 min relative to control
# T1 sequence (whole entry): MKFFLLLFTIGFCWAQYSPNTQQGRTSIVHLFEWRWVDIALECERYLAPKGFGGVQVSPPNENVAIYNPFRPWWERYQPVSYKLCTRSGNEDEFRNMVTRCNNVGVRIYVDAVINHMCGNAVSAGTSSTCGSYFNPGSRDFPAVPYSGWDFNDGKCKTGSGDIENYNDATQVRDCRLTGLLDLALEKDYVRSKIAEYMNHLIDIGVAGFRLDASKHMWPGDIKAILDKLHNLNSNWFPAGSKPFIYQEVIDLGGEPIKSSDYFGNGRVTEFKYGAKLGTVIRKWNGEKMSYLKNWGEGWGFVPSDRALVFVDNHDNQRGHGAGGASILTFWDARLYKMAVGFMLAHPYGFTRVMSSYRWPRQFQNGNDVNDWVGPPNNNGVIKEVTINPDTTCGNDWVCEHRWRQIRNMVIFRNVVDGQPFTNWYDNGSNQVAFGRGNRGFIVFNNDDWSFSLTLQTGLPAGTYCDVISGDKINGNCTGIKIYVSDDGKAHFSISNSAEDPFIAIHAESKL
Activity [2],Activity [5] [%],Structure (SMILES),Activity [1] [%],Activity [3] [%],Activity [4] [%]
Active,64,COc1ccc(C2CC(c3ccc(-n4nc(C)n(N)c4=O)cc3)=NN2C(C)=O)cc1OC (stereo not given),1.67,0.48,1.18
Active,76.7,CC(=O)N1N=C(c2ccc(-n3nc(C)n(N)c3=O)cc2)CC1c1ccccc1Cl (stereo not given),78.4,20,67.8
Active,76.7,CC(=O)N1N=C(c2ccc(-n3nc(C)n(N)c3=O)cc2)CC1c1ccc(O)cc1 (stereo not given),16.9,3.08,9.03
Active,126,CC(=O)N1N=C(c2ccc(-n3nc(C)n(N)c3=O)cc2)CC1c1ccc(Cl)cc1 (stereo not given),81.5,21.7,69.9
Active,102,CC(=O)N1N=C(c2ccc(-n3nc(C)n(N)c3=O)cc2)CC1c1ccc([N+](=O)[O-])cc1 (stereo not given),1.49,0.4,1.09
Active,96.5,CC(=O)N1N=C(c2ccc(-n3nc(C)n(N)c3=O)cc2)CC1c1ccc(C)cc1 (stereo not given),82.5,23,70.1
Active,96.5,CC(=O)N1N=C(c2ccc(-n3nc(C)n(N)c3=O)cc2)CC1c1cccc(Cl)c1 (stereo not given),73.8,15.2,63.8
Active,96.5,COc1ccc(C2CC(c3ccc(-n4nc(C)n(N)c4=O)cc3)=NN2C(C)=O)cc1 (stereo not given),2.4,0.6,2.28
Active,129,CC(=O)N1N=C(c2ccc(-n3nc(C)n(N)c3=O)cc2)CC1c1ccccc1 (stereo not given),56.1,24.7,30.2
